Test results from US20220395472A1 (Dermavant Sciences GmbH, priority 2021, published 2022).

Tested on: adults with plaque psoriasis
Assay: Long-term open-label extension study (PSOARING 3): Physician Global Assessment (PGA), treatment episodes, treatment success, remittive effect
Assay type: in vivo, human
Procedure: This extension study consisted of up to 40 weeks of treatment and a 4 week, safety follow up period.
At the completion of the Week 12 visit of the DB, pivotal Phase 3 study, eligibility of the subjects opting to enroll in this extension study was confirmed. Study visits during the treatment period for all subjects occurred every 4 weeks (±3 days). A phone call was performed at Week 2 (Day 15). Unscheduled visits may have occurred, as needed. Subjects who withdrew from this study before Week 40 returned to the study center for an Early Termination visit. The total duration of this extension study participation was 44 weeks. Subjects in this study were treated as follows based on their PGA score from the Week 12 visit in the DB, pivotal Phase 3 study (Study DMVT 505 3001 or Study DMVT 505 3002).
The PGA was used to assess the primary efficacy endpoint in this study. The PGA is a clinical tool for assessing the current state/severity of a subject's psoriasis at a given time point. It is a static, 5 point, morphological assessment of overall disease severity, as determined by the Investigator, using the clinical characteristics of erythema, scaling, and plaque thickness/elevation as guidelines; higher PGA scores represent more severe disease (0=clear, 1=almost clear, 2=mild, 3=moderate, and 4=severe). The BSA affected was not considered in scoring of the PGA. Variations of the PGA are frequently used in clinical studies because it is a simple assessment, similar to those used in clinical practice. The PGA was performed first, prior to the % BSA, PASI, and LTS assessments.
Time to event parameters, such as the time from treatment success to subsequent worsening (PGA≥2) or duration of treatment episode, were summarized by the Kaplan Meier product limit method using OC.

[1] = Baseline PGA = 2, Tapinarof (Pivotal) group
[2] = Baseline PGA = 2, Vehicle (Pivotal) group
[3] = Baseline PGA = 3, Tapinarof (Pivotal) group

For `CC(C)c1c(O)cc(/C=C/c2ccccc2)cc1O` [Tapinarof, 3,5-Dihydroxy-4-isopropyl-trans-stilbene], the “Duration of 1st Success, Mean (SD)” value [1] was 81.3 (71.03) days, the “Duration of 1st Success, Median” value [1] was 57.0 days and the “Duration of 2nd Episode, Mean (SD)” value [1] was 78.2 (54.89) days. For the same molecule, the “Duration of 2nd Episode, Median” value [1] was 84.5 days, the “Duration of 2nd Success, Mean (SD)” value [1] was 27.3 (30.06) days and the “Duration of 2nd Success, Median” value [1] was 25.0 days. The “Duration of 3rd Episode, Mean (SD)” value [1] was 1.0 (NE) days, the “Duration of 3rd Episode, Median” value [1] was 1.0 days and the “Duration of Last Episode, Mean (SD)” value [1] was 175.4 (98.91) days. For the same molecule, the “Duration of Last Episode, Median” value [1] was 197.0 days, the “Duration of Last Success, Mean (SD)” value [1] was 76.1 (72.82) days and the “Duration of Last Success, Median” value [1] was 56.0 days. The “Total Duration of Treatment Episodes, Mean (SD)” value [1] was 190.1 (90.58) days, the “Total Duration of Treatment Episodes, Median” value [1] was 223.0 days and the “Total Duration of Treatment Success, Mean (SD)” value [1] was 84.6 (71.17) days. For the same molecule, the “Total Duration of Treatment Success, Median” value [1] was 78.0 days, the “Average Duration of Episodes, Mean (SD)” value [2] was 169.8 (89.68) days and the “Average Duration of Episodes, Median” value [2] was 194.0 days. The “Average Duration of Treatment Success, Mean (SD)” value [2] was 94.6 (65.57) days, the “Average Duration of Treatment Success, Median” value [2] was 87.0 days and the “Duration of 1st Episode, Mean (SD)” value [2] was 173.2 (86.28) days. The “Duration of 1st Episode, Median” value [2] was 194.0 days, the “Duration of 1st Success, Mean (SD)” value [2] was 110.8 (72.69) days and the “Duration of 1st Success, Median” value [2] was 115.5 days. For the same molecule, the “Duration of 2nd Episode, Mean (SD)” value [2] was 46.0 (42.39) days, the “Duration of 2nd Episode, Median” value [2] was 27.0 days and the “Duration of 2nd Success, Mean (SD)” value [2] was 34.7 (51.14) days. For the same molecule, the “Duration of 2nd Success, Median” value [2] was 27.5 days, the “Duration of 3rd Episode, Mean (SD)” value [2] was 42.5 (19.09) days and the “Duration of 3rd Episode, Median” value [2] was 42.5 days. For the same molecule, the “Duration of 3rd Success, Mean (SD)” value [2] was 29.0 (NE) days, the “Duration of 3rd Success, Median” value [2] was 29.0 days and the “Duration of Last Episode, Mean (SD)” value [2] was 166.2 (95.09) days. For the same molecule, the “Duration of Last Episode, Median” value [2] was 194.0 days, the “Duration of Last Success, Mean (SD)” value [2] was 79.8 (77.74) days and the “Duration of Last Success, Median” value [2] was 44.5 days. For the same molecule, the “Total Duration of Treatment Episodes, Mean (SD)” value [2] was 184.6 (78.19) days, the “Total Duration of Treatment Episodes, Median” value [2] was 196.5 days and the “Total Duration of Treatment Success, Mean (SD)” value [2] was 127.9 (73.01) days. The “Total Duration of Treatment Success, Median” value [2] was 136.5 days, the “Average Duration of Episodes, Mean (SD)” value (Baseline PGA = 3, Overall) was 178.0 (94.87) days and the “Average Duration of Episodes, Median” value (Baseline PGA = 3, Overall) was 197.0 days. The “Average Duration of Treatment Success, Mean (SD)” value (Baseline PGA = 3, Overall) was 66.4 (56.88) days, the “Average Duration of Treatment Success, Median” value (Baseline PGA = 3, Overall) was 51.0 days and the “Duration of 1st Episode, Median” value (Baseline PGA = 3, Overall) was 197.0 days. The “Duration of 1st Success, Mean (SD)” value (Baseline PGA = 3, Overall) was 68.8 (57.40) days, the “Duration of 1st Success, Median” value (Baseline PGA = 3, Overall) was 56.0 days and the “Duration of 2nd Episode, Mean (SD)” value (Baseline PGA = 3, Overall) was 58.8 (46.15) days. The “Duration of 2nd Episode, Median” value (Baseline PGA = 3, Overall) was 55.0 days, the “Duration of 2nd Success, Mean (SD)” value (Baseline PGA = 3, Overall) was 31.5 (19.15) days and the “Duration of 2nd Success, Median” value (Baseline PGA = 3, Overall) was 28.5 days. For the same molecule, the “Duration of 3rd Episode, Mean (SD)” value (Baseline PGA = 3, Overall) was 55.2 (27.44) days, the “Duration of 3rd Episode, Median” value (Baseline PGA = 3, Overall) was 57.0 days and the “Duration of 3rd Success, Mean (SD)” value (Baseline PGA = 3, Overall) was 28.0 (NE) days. The “Duration of 3rd Success, Median” value (Baseline PGA = 3, Overall) was 28.0 days, the “Duration of 4th Episode, Mean (SD)” value (Baseline PGA = 3, Overall) was 1.0 (NE) days and the “Duration of 4th Episode, Median” value (Baseline PGA = 3, Overall) was 1.0 days. For the same molecule, the “Duration of Last Episode, Mean (SD)” value (Baseline PGA = 3, Overall) was 175.4 (98.29) days, the “Duration of Last Episode, Median” value (Baseline PGA = 3, Overall) was 197.0 days and the “Duration of Last Success, Mean (SD)” value (Baseline PGA = 3, Overall) was 64.1 (58.23) days. For the same molecule, the “Duration of Last Success, Median” value (Baseline PGA = 3, Overall) was 51.0 days, the “Total Duration of Treatment Episodes, Mean (SD)” value (Baseline PGA = 3, Overall) was 187.9 (90.62) days and the “Total Duration of Treatment Episodes, Median” value (Baseline PGA = 3, Overall) was 198.0 days. For the same molecule, the “Total Duration of Treatment Success, Mean (SD)” value (Baseline PGA = 3, Overall) was 75.5 (57.18) days, the “Total Duration of Treatment Success, Median” value (Baseline PGA = 3, Overall) was 64.0 days and the “Average Duration of Episodes, Mean (SD)” value [3] was 184.7 (96.36) days. For the same molecule, the “Average Duration of Episodes, Median” value [3] was 198.0 days, the “Average Duration of Treatment Success, Mean (SD)” value [3] was 63.9 (54.43) days and the “Average Duration of Treatment Success, Median” value [3] was 48.3 days. For the same molecule, the “Duration of 1st Episode, Mean (SD)” value [3] was 187.1 (95.90) days, the “Duration of 1st Episode, Median” value [3] was 198.0 days and the “Duration of 1st Success, Mean (SD)” value [3] was 62.6 (55.19) days. For the same molecule, the “Duration of 1st Success, Median” value [3] was 43.0 days, the “Duration of 2nd Episode, Mean (SD)” value [3] was 68.2 (77.66) days and the “Duration of 2nd Episode, Median” value [3] was 30.0 days. For the same molecule, the “Duration of 2nd Success, Mean (SD)” value [3] was 57.0 (NE) days, the “Duration of 2nd Success, Median” value [3] was 57.0 days and the “Duration of Last Episode, Mean (SD)” value [3] was 182.2 (99.93) days. The “Duration of Last Episode, Median” value [3] was 198.0 days, the “Duration of Last Success, Mean (SD)” value [3] was 65.2 (54.03) days and the “Duration of Last Success, Median” value [3] was 56.0 days. The “Total Duration of Treatment Episodes, Mean (SD)” value [3] was 190.8 (95.50) days and the “Total Duration of Treatment Episodes, Median” value [3] was 200.0 days.
